The record followed here is PMC7770833, “Design, Synthesis, and Biological Evaluation of a Series of Oxazolone Carboxamides as a Novel Class of Acid Ceramidase Inhibitors” (Journal of Medicinal Chemistry, 2020).

This data set is described as follows: In vivo PK study in C57BL/6 mice. Also noted: species or system mouse. The protocol: C57 B6/J male mice, 8 weeks old (22–24 g), were used (Charles River, Calco). All procedures were performed in accordance with the Ethical Guidelines of European Communities Council (Directive 2010/63/EU of 22 September 2010) and accepted by the Italian Ministry of Health. All efforts were made to minimize animal suffering and to use the minimal number of animals required to produce reliable results, according to the “3Rs rules”. Animals were group-housed in ventilated cages and had free access to food and water. They were maintained under a 12 h light/dark cycle (lights on at 8:00 am) at a controlled temperature (21 ± 1 °C) and relative humidity (55 ± 10%). 32b was administrated intravenously (i.v.) at 3 mg/kg/5 mL, vehicle: PEG400/Tween 80/saline solution (10/10/80% in volume, respectively) via tail vein injection and via oral administration (p.o.) at 10 mg/kg/10 mL, vehicle: PEG400/Tween 80/saline solution (10/10/80% in volume, respectively) by an oral gavage. Sample collection. Samples were collected at 5 min, 15 min, 30 min, 1 h, 2 h, and 4 h (i.v. administration) and at 15 min, 30 min, 1 h, 2 h, 4 h, and 6 h (p.o. administration). N = 3 animals per dose time point were treated. Plasma samples were centrifuged at 21,100g for 15 min at 4 °C. An aliquot of each sample was extracted (1:3) with cold CH3CN containing 200 nM of an appropriate internal standard being a close analogue of compound 32b. A calibration curve was prepared in blank mouse plasma over a 1 nM–10 μM range. Three quality controls were prepared by spiking compound 32b in the blank mouse plasma to 20, 200, and 2000 nM as final concentrations. The calibrators and quality controls were extracted (1:3) with the same extraction solution as the plasma samples. The plasma samples, the calibrators, and quality controls were centrifuged at 3270 × g for 15 min at 4 °C. The supernatants were further diluted (1:1) with H2O and analyzed by LC/MS–MS on a Waters Acquity UPLC/MS TQD system consisting of TQD) MS equipped with an ESI interface and a PDA detector. ESI was applied in positive mode. Compound-dependent parameters such as MRM transitions and collision energy were developed for compound 32b and the internal standard. The analyses were run on an Acquity UPLC BEH C18 (50 × 2.1 mm ID, particle size 1.7 μm) with a VanGuard BEH C18 pre-column (5 × 2.1 mm ID, particle size 1.7 μm) at 40 °C. For plasma samples, the mobile phase was H2O + 0.1% HCOOH (A) and CH3CN + 0.1% HCOOH (B) at a flow rate = 0.5 mL/min. A linear gradient was applied starting at 20% B with an initial hold for 0.2 min, then 20–100% B in 2 min. All samples (plasma samples, calibrators, and quality controls) were quantified by a MRM peak area response factor in order to determine the levels of compound 32b in the plasma. The concentrations versus time were plotted and the profiles were fitted using PK Solutions Excel Application (Summit Research Service, USA) in order to determine the PK parameters.

By AUC is commonly meant the area under the concentration-time curve, a measure of exposure. The clearance is a measure of how efficiently the substance is removed, as volume per time. A low value points to inefficient removal.

As for `CCCCCNC(=O)n1cc(-c2ccc(F)cc2C2CCN(C)CC2)oc1=O` [Compound 32b, 5-[4-Fluoro-2-(1-methyl-4-piperidyl)phenyl]-2-oxo-N-pentyl-oxazole-3-carboxamide], the “Vdss (mL/kg)” value (10 mg/kg, p.o.) is given as 32 877 mL/kg. For the same molecule, the exposure (AUC) at 4 h reads like this: (male, mouse, iv, 3 mg/kg, plasma) 533 ng·h/mL; (male, mouse, po, 10 mg/kg, plasma) 709 ng·h/mL. Moreover, the clearance at 4 h (male, mouse, plasma, iv, 3 mg/kg) was 72 mL/min/kg. In addition, under “male, mouse, plasma, iv, 3 mg/kg, i.v., read-out: Vdss (converted)”, the Vd at 4 h was 12.4 L/kg.
